This is an account of results in patent publication US5177075A, “Substituted dihydroisoquinolinones and related compounds as potentiators of the lethal effects of radiation and certain chemotherapeutic agents; selected compounds, analogs and process” (priority 1991, dated 1993).

A word on the IC50: it is the concentration needed to halve the response being measured.

Series [1] relates to cells exposed to radiation. The conditions noted are these: cited from earlier work.
The next series relates to V79 cells. Put plainly: In vitro radiosensitizing activity at 37°: shoulder modifying effects (reduction in Dq). Format: cell-based. As to conditions: for Shoulder Modification (% Reduction in DQ): hypoxic V79 cells, class symbols. On the procedure: The shoulder region represents the inherent repair capabilities of a given cell line. […] To determine the hypoxic x-ray dose response, cells are rendered hypoxic four hours prior to the addition of the test compound by placing them in a 37° C. incubator within an anaerobic glove chamber (Forma). […] Drug is added (0.1 ml into 2 ml media in petri dish) within the anaerobic chamber and drug treatment is at the highest nontoxic dose for one hour at 37°. The oxic x-ray dose response is determined in a similar manner except that all manipulations are carried out in air. […] Cytotoxicity controls (drug only, no irradiation) are included as well as oxic and hypoxic untreated controls (irradiation only, no drug). Immediately following irradiation, cells are rinsed twice with 2 ml fresh media prior to the addition of 5 ml of fresh media. The cells are then incubated at 37° C. After six days, dishes are stained with crystal violet and colonies of 50 or more cells are counted to determine percent surviving cells versus x-ray dose. […] This is expressed by percent reduction in Dq where Dq is defined as the dose at the intersection of the regression line for the logarithmic portion of the survival curve with the 100% survival level. This is taken to represent the width of the shoulder region of the survival curve.

The target in series [2] is T1, Poly(ADP-ribose) synthetase (Bos taurus, UniProt P18493).
T1 construct: Poly (ADP-ribose) synthetase from calf thymus; from tissue; host or cells: calf thymus
T1 sequence (P18493 whole entry): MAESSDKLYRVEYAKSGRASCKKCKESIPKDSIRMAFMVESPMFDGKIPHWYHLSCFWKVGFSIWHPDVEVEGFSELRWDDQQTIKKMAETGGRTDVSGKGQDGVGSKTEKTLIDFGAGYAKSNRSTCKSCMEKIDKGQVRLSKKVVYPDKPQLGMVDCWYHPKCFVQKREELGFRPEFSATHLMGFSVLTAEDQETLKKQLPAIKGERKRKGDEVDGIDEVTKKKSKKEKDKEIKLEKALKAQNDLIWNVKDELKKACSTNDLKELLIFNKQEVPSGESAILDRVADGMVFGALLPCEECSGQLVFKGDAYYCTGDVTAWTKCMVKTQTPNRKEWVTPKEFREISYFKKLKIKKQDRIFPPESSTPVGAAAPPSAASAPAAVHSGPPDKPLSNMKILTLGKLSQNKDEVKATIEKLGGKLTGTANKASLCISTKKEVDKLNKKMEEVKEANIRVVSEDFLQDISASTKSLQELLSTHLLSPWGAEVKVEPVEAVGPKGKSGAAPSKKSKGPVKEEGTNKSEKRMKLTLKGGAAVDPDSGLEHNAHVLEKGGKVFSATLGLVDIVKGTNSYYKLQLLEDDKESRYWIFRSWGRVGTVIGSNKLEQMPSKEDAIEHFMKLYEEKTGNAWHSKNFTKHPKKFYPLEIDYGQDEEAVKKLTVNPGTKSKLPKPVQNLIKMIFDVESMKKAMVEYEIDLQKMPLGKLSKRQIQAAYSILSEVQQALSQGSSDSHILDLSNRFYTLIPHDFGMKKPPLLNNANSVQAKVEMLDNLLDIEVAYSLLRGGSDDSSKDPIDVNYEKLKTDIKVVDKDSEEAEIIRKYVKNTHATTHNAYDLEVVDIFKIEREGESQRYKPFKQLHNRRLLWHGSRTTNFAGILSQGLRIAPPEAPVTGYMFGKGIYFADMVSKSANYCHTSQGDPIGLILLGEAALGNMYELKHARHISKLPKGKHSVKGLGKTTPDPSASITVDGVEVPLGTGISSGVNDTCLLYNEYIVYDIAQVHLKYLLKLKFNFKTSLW
The conditions noted are these: cited from earlier work.

A further series deals with L1210 cells. Put plainly: Inhibition of the repair of radiation-induced DNA damage as assessed by alkaline elution. The series is classed as cell-based. On the procedure: Inhibition of the Repair of Radiation-Induced DNA Damage as Assessed by Alkaline Elution The basic alkaline elution assay is carried out according to the procedure of K. W. Kohn, […]. Erickson, and L. A. Zwelling in DNA Repair: A Laboratory Manual of Research Procedures (eds. E. C. Freidburg and […]) with slight modifications. Briefly, suspension cultures of exponentially growing L1210 cells (total of 4×10^6 cells) are labeled with 0.02 μCi/ml of [^14 C] thymidine plus 1 nmol/ml of unlabeled thymidine for 24 hours prior to use. L1210 cells used as an internal standard are grown in media supplemented with 0.1 μCi/ml of [^3 H]thymidine and 1 nmol/ml unlabeled thymidine. For the elution protocol cells are removed from the culture flasks, centrifuged, and resuspended in fresh media. Drug treatment for experimental cells is for one hour at 37°. After the treatment period control and drug-treated cells are given a dose of 10 Gy of x-rays and incubated at 37° C. for 10 minutes to allow for repair. Samples consisting of 5×10^5 cells contained in 5 ml of ice cold PBS are deposited directly on 25 mm polycarbonate filters (2 micron pore size). The cells are washed with 5 ml of cold PBS, then lysed by the addition of 5 ml of lysis solution (0.2% SDS, 0.25M tetrasodium EDTA pH 9.7). All procedures commencing at the time of lysis are carried out in the dark. Subsequent to lysis samples are treated with 2 ml of lysis solution containing proteinase-K (0.5 mg/ml) for one hour. The filters are then eluted with tetrapropyl ammonium hydroxide/0.025M EDTA (free acid form)/0.1% SDS, pH 12.1, at a constant flow rate of 0.037 ml/min. Fractions of 2 ml are collected in scintillation vials. […] To each fraction collected and the filter solution 15 ml of modified Ready-Gel scintillation fluid containing 0.7% acetic acid is added. The frequency of single-stranded DNA breakage was calculated as described by Kohn, et al. The data is corrected for the number of single-strand breaks in the […] samples (~20%).

In series [3] the target is T1, Poly(ADP-ribose) synthetase. Description: Inhibition of Poly(ADP-ribose) synthetase. The series is classed as biochemical, calf.
Protocol: The enzyme assay is performed by placing the following in small glass tubes kept at 4°: 100 μl of buffer consisting of 0.5M Tris-HCl pH 8.0, 50 mM MgCl2, and 5 mM dithiothreitol; 50 μl of 1 mM [^3 H]nicotinamide adenine dinucleotide having a specific activity of 15 μCi/μmol; 100 μl of calf thymus DNA (0.3 mg/ml in water); 50 μl of calf thymus histone (Sigma, Type IIA, 0.5 mg/ml); 50 μl of inhibitor or inhibitor solvent; 150 μl of enzyme. The components are thoroughly mixed and warmed to 30° C. in a water bath. After 15 minutes the reaction is stopped by adding 2 ml of ice cold 15% trichloroacetic acid and the tubes are placed on ice for 15 minutes. The precipitate is collected on glass fiber filters and washed five times with ice cold 15% trichloroacetic acid. The filters were dried and radioactivity determined in a liquid scintillation counter.
In the next series the test system is KHT fibrosarcoma tumors. Put plainly: In vivo assay for radiosensitization activity. Further details: species or system hybrid mice (B6C3F1). The conditions noted are these: for In Vivo Radiosensitizing Activity: KHT tumors in mice, relative to misonidazole. On the procedure:
In Vivo Assay for Radiosensitization Activity
For this assay KHT fibrosarcoma tumors in hybrid mice (B6C3F1) weighing 20-25 g are used. The mice are randomized and implanted SC with the appropriate tumor brei on Day 0 (one implant/mouse). Samples from each donor tumor and/or from the final brei are incubated in thioglycolate media as a check for gross bacterial contamination. On Day 8 tumors are measured in two dimensions with calipers and animals with tumor masses in the range of 500 to 700 mg are selected for the assay. At this point the tumors contain approximately 20% hypoxic cells.
The test agents are dissolved in any of several vehicles at a fixed injection dose equal to 90-100% of the maximum tolerated dose. Additional suitable controls of test compound (no irradiation) and vehicle-injected and irradiated mice are also included. Mice are irradiated at a dose of 1700 RADs at various intervals both prior to and after intraperitoneal administration of the test agents.
By using these intervals, an indication of both the optimum time to irradiate and the degree of sensitization are obtained. Irradiation of the KHT tumors is by whole body irradiation of animals in movement restricting jigs at different total exposures as indicated. The x-ray source is a Phillips 320 KV instrument with a half-value thickness of 2.0 mm copper and a target to source distance of 17 inches, with a delivery rate of 2.0 Gy/minute. Animals are monitored for signs of acute toxicity after treatment.
After incubation for 12-16 days at 37° and staining, the colonies are counted. The data are expressed as % control versus time.

The next series deals with tumors. The conditions noted are these: cited from earlier work.
A further series deals with hypoxic tumor cells. The conditions noted are these: cited from earlier work.
The conditions of series [4]: cited from earlier work; for peripheral neuropathy and convulsions: mice.
[5] abbreviates: L1210 cells, 10 Gy x-rays, class symbols.
The mark [6] stands for this setting: 30° C., 15 minutes, [3H]NAD, read-out: IC50.

The structures appear in SMILES notation. Entries after “also recorded” stand apart in the source; their conditions may differ. Like-named read-outs stand apart in the source and are kept apart here.

On to `NC(=O)c1cccc(N)c1` [3-aminobenzamide], for which the “killing of cells by DNA-damaging agents” value in [1] (certain cell lines) is reported as “enhanced killing of these cells by the damaging agents”. For the same compound, the “inhibition of postirradiation repair” value in series [1] was “inhibit this postirradiation repair process, thereby sensitizing cells to the lethal effects of radiation; also recorded: inhibited”. The “reduction of Dq” value with V79 cells was “does not reduce Dq”. For the same compound, in series [2], the “inhibition of poly(ADP-ribose)synthetase” value is listed as “previously known best inhibitor of poly(ADP-ribose)synthetase”.

Take `Oc1cccc2c(O)nccc12` [Example I, 1,5-Dihydroxyisoquinoline]: the “Frequency of Unrepaired Strand Breaks” value in the series on L1210 cells (setting [5]) is on record as “+ (101-200)”. Besides, in the series on V79 cells, the “Shoulder Modification (% Reduction in DQ)” value is reported as “- (1-14%)”. In series [3] (setting [6]), the IC50 came out at 140 nM. In the series with KHT fibrosarcoma tumors, the “In Vivo Radiosensitizing Activity” value is “+”.

As for `O=C1NCCc2c(O)cccc21` [Example II, 3,4-Dihydro-5-hydroxy-1(2H)-isoquinolinone], in the series on L1210 cells (setting [5]), the “Frequency of Unrepaired Strand Breaks” value is “++ (201-300)”. Also, in the series with V79 cells, the “Shoulder Modification (% Reduction in DQ)” value is given as “+ (15-29%)”. For the same compound, the IC50 in series [3] (setting [6]) came out at 100 nM. Moreover, in the series on KHT fibrosarcoma tumors, the “In Vivo Radiosensitizing Activity” value is reported as “+”.

With `O=C1NCCc2c(OCC(O)CN3CCCCC3)cccc21` (centres unmarked) [Example IV, 3,4-Dihydro-5-[2-hydroxy-3-(1-piperidinyl)propoxy]-1(2H)-isoquinolinone], in the series with V79 cells, the “Shoulder Modification (% Reduction in DQ)” value is given as “+++ (≥45%)”. The half-maximal inhibitory concentration (IC50) in series [3] (setting [6]) was 320 nM.

For the compound `Nc1cccc2c(=O)[nH]ccc12` [Example VIII, 5-Amino-1(2H)-isoquinolinone], in the series on V79 cells, the “Shoulder Modification (% Reduction in DQ)” value is “- (1-14%)”. Besides, in series [3] (setting [6]), the IC50 is 240 nM.

Regarding `Cc1cccc2c1CCNC2=O` [Example XII, 3,4-Dihydro-5-methyl-1(2H)-isoquinolinone], the “Frequency of Unrepaired Strand Breaks” value is “++++ (401-500)” in the series on L1210 cells (setting [5]) and 470 Rad. Eq in the series with L1210 cells (numeric). Also, in the series on V79 cells, the “Shoulder Modification (% Reduction in DQ)” value is on record as “++ (30-44%)”. In the series with V79 cells (numeric), the “% Reduction in Dq (37°)” value is 30%. Besides, in series [3], the concentration for half-maximal inhibition (IC50) is 160 nM. Also, the “In Vivo Radiosensitizing Activity” value in the series with KHT fibrosarcoma tumors is recorded as “+”. Moreover, in the series with KHT fibrosarcoma tumors (in vivo), the “Enhancement Ratio (in vivo)” value is recorded as 1.4-1.5. Further, in the series with KHT fibrosarcoma tumors (time of administration before irradiation), the Optimum time preirradiation lay within 2 to 3 h.

Take `Cl.Nc1cccc2c1CCNC2=O` [IX, 5-Amino-3,4-dihydro-1(2H)-isoquinolinone, monohydrochloride]: in the series with L1210 cells (setting [5]), the “Frequency of Unrepaired Strand Breaks” value is reported as “+++ (301-400)”. The “Shoulder Modification (% Reduction in DQ)” value with V79 cells is recorded as “- (1-14%)”. For the same compound, the half-maximal inhibitory concentration (IC50) in series [3] (setting [6]) worked out at 410 nM.

Take `CNC=O` [N-methylformamide]: the “sensitization of tumors to radiation” value with tumors was “sensitize tumors to the lethal effects of radiation”.

In the case of `CCc1cccc2c1CCNC2=O` [XV, 5-Ethyl-3,4-dihydro-1(2H)-isoquinolinone], the “Frequency of Unrepaired Strand Breaks” value in the series on L1210 cells (setting [5]) is recorded as “+ (101-200)”. Further, the “Shoulder Modification (% Reduction in DQ)” value in the series with V79 cells was “- (1-14%)”. For the same compound, the IC50 in [3] (setting [6]) turned out to be 1000 nM.

As for `O=C1NCCc2c(OCCN3CCCCC3)cccc21` [XXXIII, 3,4-Dihydro-5-[2-(1-piperidinyl)ethoxy]-1(2H)-isoquinolinone], the IC50 in series [3] (setting [6]) was found to be 820 nM.

Regarding `O=C1NCCc2c(OCCCCN3CCCCC3)cccc21` [XXXIV, 3,4-Dihydro-5-[4-(1-piperidinyl)butoxy]-1(2H)-isoquinolinone], the IC50 in series [3] is 800 nM.

As for `O=C1NCCc2c(OCC(O)COc3ccccc3)cccc21` (centres unmarked) [XXXIX, 3,4-Dihydro-5-(2-hydroxy-3-phenoxypropoxy)-1(2H)-isoquinolinone], the IC50 in series [3] (setting [6]) was determined as 650 nM.

Consider `CCOc1cccc2c1CCNC2=O` [XXXV, 5-Ethoxy-3,4-dihydro-1(2H)-isoquinolinone], for which, in [3] (setting [6]), the IC50 stood at 2600 nM.

On to `CCCOc1cccc2c1CCNC2=O` [XXXVI, 3,4-Dihydro-5-propoxy-1(2H)-isoquinolinone], for which the concentration for half-maximal inhibition (IC50) in series [3] (setting [6]) was determined as 110 nM.

As to `CCCCOc1cccc2c1CCNC2=O` [XXXVII, 5-Butoxy-3,4-dihydro-1(2H)-isoquinolinone], the IC50 in series [3] (setting [6]) amounted to 6000 nM.

`COCC(O)COc1cccc2c1CCNC2=O` (centres unmarked) [XXXVIII, 3,4-Dihydro-5-(2-hydroxy-3-methoxypropoxy)-1(2H)-isoquinolinone]: the IC50 in series [3] (setting [6]) amounted to 1500 nM.

Turning to `CCN(CC)CC(O)COc1cccc2c1CCNC2=O` (centres unmarked) [XXX], the IC50 in series [3] (setting [6]) turned out to be 1000 nM.

In the case of `Cc1ncc([N+](=O)[O-])n1CCO` [metronidazole, 2-methyl-5-nitro-1H-imidazole-1-ethanol], in the series on hypoxic tumor cells, the “radiosensitizing activity” value is “effective as radiosensitizers for hypoxic cells in vivo; also recorded: active both in vitro and in vivo as a radiosensitizer”. In addition, the “peripheral neuropathy and convulsions” value in series [4] was “peripheral neuropathy effects and convolusions in mice”. In addition, in series [4] (mouse, in vivo), the CNS side effects result was “serious adverse CNS side effects” and the “CNS toxicity, use in humans” value is “limiting factor for their use in humans”.

As to `COCC(O)Cn1ccnc1[N+](=O)[O-]` (stereo not drawn) [misonidazole, α-(methoxymethyl)-2-nitro-1H-imidazole-1-ethanol], in the series with hypoxic tumor cells, the “radiosensitizing activity” value is given as “of value as a radio-sensitizer for hypoxic tumor cells; also recorded: effective as radiosensitizers for hypoxic cells in vivo”. Further, the CNS side effects result in [4] (administered to mice) is “serious adverse CNS side effects”. For the same compound, the “peripheral neuropathy and convulsions” value in series [4] was “peripheral neuropathy effects and convolusions in mice”. Further, the “CNS toxicity, use in humans” value in series [4] (use in humans) is “limiting factor for their use in humans”.
